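Results reflect a 48-hour exposure of cells in 96-well plates to compound at five concentrations. The concentration for 50% growth inhibition is given as GI50.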 The source made the active and inactive calls. Rule as the data show it: active = GI50 up to about 1.1 µM and inactive = higher.
Key:
Test in all cases: NCI anticancer screen, dose series, 48 h
[1] = tested on: SK-OV-3
[2] = tested on: IGROV-1
[3] = tested on: U-251
[4] = tested on: OVCAR-3
[5] = tested on: A549
[6] = tested on: SF-268
[7] = tested on: SR
[8] = tested on: RPMI-8226
[9] = tested on: MDA-MB-435
[10] = tested on: DU-145
[11] = tested on: MOLT-4
[12] = tested on: EKVX
[13] = tested on: 786-0
[14] = tested on: NCI-H23
[15] = tested on: HL-60
[16] = tested on: Hs-578T
[17] = tested on: HCC 2998
[18] = tested on: NCI-H226
[19] = tested on: BT-549
[20] = tested on: SK-MEL-2
[21] = tested on: HT-29
[22] = tested on: ACHN
[23] = tested on: MCF7
[24] = tested on: Malme-3M
[25] = tested on: COLO 205
[26] = tested on: TK-10
[27] = tested on: SN12C
[28] = tested on: HOP-92
[29] = tested on: PC-3
[30] = tested on: SW-620
[31] = tested on: SF-295
[32] = tested on: CCRF-CEM
[33] = tested on: SNB-19
[34] = tested on: NCI-H522
[35] = tested on: SNB-75
[36] = tested on: OVCAR-5
[37] = tested on: SF-539
[38] = tested on: OVCAR-8
[39] = tested on: SK-MEL-28
[40] = tested on: CAKI-1
[41] = tested on: HCT-15
[42] = tested on: UACC-257
[43] = tested on: OVCAR-4
[44] = tested on: NCI-H460
[45] = tested on: UO-31
[46] = tested on: A498
[47] = tested on: MDA-MB-231
[48] = tested on: HCT-116
[49] = tested on: LOX IMVI
[50] = tested on: M14
[51] = tested on: T47D
[52] = tested on: NCI/ADR-RES
[53] = tested on: SK-MEL-5
[54] = tested on: HOP-62
[55] = tested on: K562
[56] = tested on: UACC-62

Measured: GI50

O=C(Cn1c(=O)oc2ccc(C(=O)c3cccc(Cl)c3)cc21)c1ccccc1
inactive: [1] 42.1 µM | [2] > 100 µM | [3] > 100 µM | [4] > 100 µM | [5] 27.2 µM | [6] > 100 µM | [7] 36.3 µM | [8] > 100 µM | [9] > 100 µM | [10] > 100 µM | [11] 49.4 µM | [12] 30.1 µM | [13] > 10 µM | [14] > 100 µM | [15] 19.3 µM | [16] > 100 µM | [17] 20.1 µM | [18] 40.9 µM | [19] 18.1 µM | [20] 67.3 µM | [21] 29.9 µM | [22] > 100 µM | [23] 87.9 µM | [24] 63 µM | [25] 33.9 µM | [26] > 100 µM | [27] > 100 µM | [28] 7.14 µM | [29] > 100 µM | [30] 65.6 µM | [31] 44.6 µM | [32] > 100 µM | [33] > 10 µM | [34] > 100 µM | [35] 25.1 µM | [36] > 100 µM | [37] > 100 µM | [38] > 100 µM | [39] > 100 µM | [40] > 100 µM | [42] 19.5 µM | [43] 12.8 µM | [44] 41.7 µM | [45] 99.8 µM | [46] 33 µM | [47] > 100 µM | [48] > 10 µM | [49] > 100 µM | [50] > 100 µM | [51] 4.53 µM | [52] > 100 µM | [53] 23.1 µM | [54] > 100 µM | [55] 57.8 µM | [56] > 100 µM
41.2 µM: [41]
